In patent publication US5608056A, “Substituted 3-pyrrolidinylthio-carbapenems as antimicrobial agents” (Fujisawa Pharmaceutical Co., Ltd., priority 1992, dated 1997) one finds MIC data, which are given here for one molecule.

This experiment concerns P. aeruginosa IAM1095. Nature of the experiment: in vitro antimicrobial activity, two-fold agar-plate dilution method (MIC). Type of experiment: cell-based. Conditions: Pseudomonas aeruginosa, heart infusion agar (HI-agar), 10^6 viable cells per ml, 37° C., 20 hours, read-out: minimal inhibitory concentration (MIC). As for the experimental part: in vitro Antimicrobial Activity was determined by the two-fold agar-plate dilution method as described below.
One loopful of an overnight culture of a test strain in Trypticase-soy broth (10^6 viable cells per ml) was streaked on heart infusion agar (HI-agar) containing graded concentrations of the test compound, and the minimal inhibitory concentration (MIC) was expressed in terms of μg/ml after incubation at 37° C. for 20 hours.

Consider `C[C@@H](O)[C@H]1C(=O)N2C(C(=O)O)=C(S[C@@H]3CN[C@H](CC[n+]4ccn(C)c4)C3)[C@H](C)[C@H]12` [Example 4-4), (4R,5S,6S)-6-[(1R)-1-hydroxyethyl]-4-methyl-3-[(2R,4S)-2-{2-(3-methyl-1-imidazolio)ethyl}pyrrolidin-4-yl]thio-7-oxo-1-azabicyclo[3.2.0]hept-2-ene-2-carboxylic acid chloride], for which the MIC stood at 0.78 µg/mL.
